Structures can show the parent of a compound that is named as a salt.
Columns and labels:
Assay type in all cases: cell-based
[1] = system: human peripheral blood lymphocytes; assay: Mitogen Induced (PHA) Human Lymphocyte Proliferation
[2] = system: influenza virus; assay: Anti-influenza activity (summary)
[3] = system: Mouse spleen cells; assay: Mitogen Induced (Con A) Mouse Lymphocyte Proliferation
Source text: The following three assay procedures are used to evaluate the ability of the test substances to modulate the activity of several classes of cells in the immune system. In these systems it is possible to identify both immunopotentiating activity (evidence by an enhancement of the parameter examined) as well as immunosuppressant activity (evidenced by an inhibition of the parameter examined).
1. Mitogen--Induced Mouse Spleen Cell Assay--Mouse spleen cells contain a population of both B and T lymphocytes which can be stimulated by a number of foreign substances (e.g., plant mitogens such as Con A) to proliferate. This enhanced proliferation is an indication of enhanced cell mediated immunity. The method below describes the system used to evaluate test substances as immunopotentiators.
Concanavalin A (Calbiochem, La Jolla, Calif.), Lot #210073, lyophilized in NaCl, was prepared first as a 1% solution and diluted as a 2× concentration for each dilution (0.5, 1.0, 2.5 μg/ml).
Six to eight week old male Balb/c and C3 H inbred mice were obtained from the following sources: Flow Research Animals, Inc., Dublin, Va.; Charles River Breeding Laboratories, Wilmington, Mass.; Laboratory Supply Company, Indianapolis, Ind.; and Lionel Strong Foundation, San Diego, Calif.
Three to five mice were sacrificed by cervical dislocation and the spleens aseptically removed. Pooled spleens were minced and teased with sterile forceps; then strained through a double layer of nylon mesh. The cell suspension was washed once with 15 ml of RPMI 1640 supplemented with 5% fetal calf serum and antibiotics. Cells were cultured at a concentration of 10^6 cells/0.1 ml/well in micro-plates. Cultures were incubated in the presence or absence of mitogen in a humidified atmosphere containing 5% CO2 for 48 hours. The test compound was added to cultures at various concentrations concommitant with mitogen.
Proliferation was assayed by the degree of incorporation of 1.0 μCi of [^3 H] thymidine over an 18 hour incubation period. Cultures were harvested by a MASH unit (Otto Hiller Co., Madison, Wisconsin) and thymidine incorporation was assayed by liquid scintillation spectrometry. Cultures were performed in triplicate and data are expressed as means plus or minus the strandard error of the experimental means. Drug stimulation indices over control values were also calculated and portrayed graphically.

CCCCCC[C@H]([C@H](C)O)n1cnc2c(N)ncnc21 (relative stereo) [NPT 15426, Erythro-9-(2-Hydroxy-3-Nonyl)-Adenine. HCl]
Maximum Percent Change, Mitogen Induced (PHA) Human Lymph. Prolif. ([1]; 1.0-10): -41% | Maximum Percent Change, Mitogen Induced (PHA) Human Lymph. Prolif. ([1]; .01-1.0): 6% | anti-influenza activity by themselves [2]: significant anti-influenza activity | Maximum Percent Change, Mitogen Induced (Con A) Mouse Lymph. Prolif. ([3]; 1.0-10): -85% | Maximum Percent Change, Mitogen Induced (Con A) Mouse Lymph. Prolif. ([3]; 10-100): -91% | Maximum Percent Change, Mitogen Induced (Con A) Mouse Lymph. Prolif. ([3]; .01-1.0): -50%

— US4221909A, “P-Acetamidobenzoic acid salts of 9-(hydroxyalkyl) purines” (Sloan-Kettering Institute for Cancer Research, priority 1978, dated 1980)
